Experimental data as given in PubChem BioAssay (NCI).
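Cultured in 96-well plates, cells were exposed to test compound for 48 hours across five concentrations. GI50 marks 50% less growth. TGI: total growth inhibition.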

What was measured:
Experiment in all cases: NCI-60 cell line screen, 48 h
786-0 renal = system: 786-0 renal
A498 renal = system: A498 renal
A549 NSCLC = system: A549 NSCLC
ACHN renal = system: ACHN renal
BT-549 breast = system: BT-549 breast
CAKI-1 renal = system: CAKI-1 renal
CCRF-CEM leukemia = system: CCRF-CEM leukemia
COLO 205 colon = system: COLO 205 colon
DU-145 prostate = system: DU-145 prostate
EKVX NSCLC = system: EKVX NSCLC
HCC-2998 colon = system: HCC-2998 colon
HCT-116 colon = system: HCT-116 colon
HCT-15 colon = system: HCT-15 colon
HL-60(TB) leukemia = system: HL-60(TB) leukemia
HOP-62 NSCLC = system: HOP-62 NSCLC
HOP-92 NSCLC = system: HOP-92 NSCLC
HS 578T breast = system: HS 578T breast
HT29 colon = system: HT29 colon
IGROV1 ovarian = system: IGROV1 ovarian
K-562 leukemia = system: K-562 leukemia
KM12 colon = system: KM12 colon
LOX IMVI melanoma = system: LOX IMVI melanoma
M14 melanoma = system: M14 melanoma
MALME-3M melanoma = system: MALME-3M melanoma
MCF7 breast = system: MCF7 breast
MDA-MB-231 breast = system: MDA-MB-231 breast
MDA-MB-435 = system: MDA-MB-435
MDA-MB-468 breast = system: MDA-MB-468 breast
MOLT-4 leukemia = system: MOLT-4 leukemia
NCI-H226 lung = system: NCI-H226 lung
NCI-H23 lung = system: NCI-H23 lung
NCI-H460 lung = system: NCI-H460 lung
NCI-H522 lung = system: NCI-H522 lung
NCI/ADR-RES ovarian = system: NCI/ADR-RES ovarian
OVCAR-3 ovarian = system: OVCAR-3 ovarian
OVCAR-4 ovarian = system: OVCAR-4 ovarian
OVCAR-5 ovarian = system: OVCAR-5 ovarian
OVCAR-8 ovarian = system: OVCAR-8 ovarian
PC-3 prostate = system: PC-3 prostate
RPMI-8226 leukemia = system: RPMI-8226 leukemia
RXF 393 renal = system: RXF 393 renal
SF-268 CNS = system: SF-268 CNS
SF-295 CNS = system: SF-295 CNS
SF-539 CNS = system: SF-539 CNS
SK-MEL-2 melanoma = system: SK-MEL-2 melanoma
SK-MEL-28 melanoma = system: SK-MEL-28 melanoma
SK-MEL-5 melanoma = system: SK-MEL-5 melanoma
SK-OV-3 ovarian = system: SK-OV-3 ovarian
SN12C renal = system: SN12C renal
SNB-19 CNS = system: SNB-19 CNS
SNB-75 CNS = system: SNB-75 CNS
SR leukemia = system: SR leukemia
SW-620 colon = system: SW-620 colon
T-47D breast = system: T-47D breast
TK-10 renal = system: TK-10 renal
U251 CNS = system: U251 CNS
UACC-257 melanoma = system: UACC-257 melanoma
UACC-62 melanoma = system: UACC-62 melanoma
UO-31 renal = system: UO-31 renal

## CS(=O)(=O)Nc1cc(-c2ccc3ncnc(N4CCc5cc(F)c(Cl)cc54)c3c2)cnc1Cl
786-0 renal
  GI50: 1640 nM
  TGI: 27000 nM
A498 renal
  GI50: 640 nM
  TGI: 3540 nM
A549 NSCLC
  GI50: 1640 nM
  TGI: 8670 nM
ACHN renal
  GI50: 1660 nM
  TGI: > 100000 nM
BT-549 breast
  GI50: 1480 nM
  TGI: 5110 nM
CAKI-1 renal
  GI50: 748 nM
  TGI: 7320 nM
CCRF-CEM leukemia
  GI50: 1840 nM
  TGI: > 100000 nM
COLO 205 colon
  GI50: 1610 nM
  TGI: 9610 nM
DU-145 prostate
  GI50: 1670 nM
  TGI: 19500 nM
EKVX NSCLC
  GI50: 559 nM
  TGI: 3630 nM
HCC-2998 colon
  GI50: 1240 nM
  TGI: 8360 nM
HCT-116 colon
  GI50: 3490 nM
  TGI: 17400 nM
HCT-15 colon
  GI50: 1000 nM
  TGI: 11400 nM
HL-60(TB) leukemia
  GI50: 484 nM
  TGI: 15100 nM
HOP-62 NSCLC
  GI50: 704 nM
  TGI: 7360 nM
HOP-92 NSCLC
  GI50: 595 nM
  TGI: 6680 nM
HS 578T breast
  GI50: 166 nM
  TGI: 1130 nM
HT29 colon
  GI50: 1480 nM
  TGI: 16800 nM
IGROV1 ovarian
  GI50: 194 nM
  TGI: 979 nM
K-562 leukemia
  GI50: 5370 nM
  TGI: 68800 nM
KM12 colon
  GI50: 3020 nM
  TGI: 18500 nM
LOX IMVI melanoma
  GI50: 1050 nM
  TGI: 4090 nM
M14 melanoma
  GI50: 1480 nM
  TGI: 14700 nM
MALME-3M melanoma
  GI50: 174 nM
  TGI: 1550 nM
MCF7 breast
  GI50: 255 nM
  TGI: 11600 nM
MDA-MB-231 breast
  GI50: 1510 nM
  TGI: 4290 nM
MDA-MB-435
  GI50: 1720 nM
  TGI: 13000 nM
MDA-MB-468 breast
  GI50: 211 nM
  TGI: 1380 nM
MOLT-4 leukemia
  GI50: 1060 nM
  TGI: 5000 nM
NCI-H226 lung
  GI50: 672 nM
  TGI: 7430 nM
NCI-H23 lung
  GI50: 1630 nM
  TGI: 9940 nM
NCI-H460 lung
  GI50: 922 nM
  TGI: 13100 nM
NCI-H522 lung
  GI50: 1620 nM
  TGI: 14300 nM
NCI/ADR-RES ovarian
  GI50: 1950 nM
  TGI: 15300 nM
OVCAR-3 ovarian
  GI50: 830 nM
  TGI: 4560 nM
OVCAR-4 ovarian
  GI50: 2350 nM
  TGI: 21100 nM
OVCAR-5 ovarian
  GI50: 1870 nM
  TGI: 23500 nM
OVCAR-8 ovarian
  GI50: 1870 nM
  TGI: 20500 nM
PC-3 prostate
  GI50: 1030 nM
  TGI: 21000 nM
RPMI-8226 leukemia
  GI50: 1840 nM
  TGI: > 100000 nM
RXF 393 renal
  GI50: 577 nM
  TGI: 3170 nM
SF-268 CNS
  GI50: 1650 nM
  TGI: 47900 nM
SF-295 CNS
  GI50: 1060 nM
  TGI: 5280 nM
SF-539 CNS
  GI50: 1560 nM
  TGI: 6730 nM
SK-MEL-2 melanoma
  GI50: 1730 nM
  TGI: 5800 nM
SK-MEL-28 melanoma
  GI50: 1320 nM
  TGI: 13400 nM
SK-MEL-5 melanoma
  GI50: 850 nM
  TGI: 2610 nM
SK-OV-3 ovarian
  GI50: 444 nM
  TGI: 2840 nM
SN12C renal
  GI50: 1680 nM
  TGI: 36500 nM
SNB-19 CNS
  GI50: 1640 nM
  TGI: 13400 nM
SNB-75 CNS
  GI50: 254 nM
  TGI: 3000 nM
SR leukemia
  GI50: 1520 nM
  TGI: 12900 nM
SW-620 colon
  GI50: 2510 nM
  TGI: 17400 nM
T-47D breast
  GI50: 141 nM
  TGI: 963 nM
TK-10 renal
  GI50: 644 nM
  TGI: 9620 nM
U251 CNS
  GI50: 2360 nM
  TGI: 17500 nM
UACC-257 melanoma
  GI50: 1390 nM
  TGI: 11000 nM
UACC-62 melanoma
  GI50: 382 nM
  TGI: 2570 nM
UO-31 renal
  GI50: 252 nM
  TGI: 4050 nM
